Laboratory results taken from patent publication US20060074091A1, “Nootropic effect enhancer” (priority 2000, published 2006).

Tested on: Fischer male rats with Meynert's basal nuclei damage
Test: Passive avoidance learning test (mneme test) in rats with ibotenic acid injury of Meynert's basal nuclei
Format: in vivo, rat
Conditions: 0.1 mg/kg
Procedure: A solution prepared by dissolving ibotenic acid in physiological saline to have a concentration of 8 μg/μl was injected into the Meynert's basal nuclei of Fischer male rats (n=12 to 13, 11-weeks old when used in the experiment). One μl of the solution was injected thereinto over a period of 6 minutes, and then the rats were left as they were for 5 minutes to thereby make them have bilateral injury. Three weeks after the treatment, they were used in the experiment. Before the experiment, they were handled for 3 days. In the mneme test, the rats were first put into the light room of a passive avoidance learning test device, and the latent time taken before they entered the dark room was measured (acclimation trial). […] Then, the rats were made to receive electric shock (0.4 mA, 4 seconds) via the grid of the floor of the dark room (acquirement trial) 24 hours after the acquirement trial, the rats were again transferred into the light room, and the reaction latent time taken before the rats entered the dark room was measured up to at most 300 seconds (retention trial). […] The dose of each of the two substances was determined on the basis of the test results previously made for the efficacy of the single administration of each substance to the same models. […]

Compound | effect on reaction latent time in single administration (in words)
COc1cc2c(cc1OC)C(=O)C(CC1CCN(Cc3ccccc3)CC1)C2.Cl (centres unmarked) [E2020, Donepedil Hydrochloride] | ineffective
CC(=O)N1CCN(NC(=O)c2ccc(F)cc2)CC1 [FK960, N-(4-acetyl-1-piperazinyl)-p-fluorobenzamide Monohydrate] | ineffective
